Laboratory results as given in patent publication US20170105647A1, “SYSTEMS AND METHODS FOR IDENTIFYING NEUROBIOLOGICAL BIOMARKERS USING EEG” (Children's Medical Center Corporation, priority 2014, published 2017).
Values joined by “and” are separate entries in the source; they are usually repeats but may differ in a detail not shown here. Identical values can stand only once.

Experiments:
Assay type in all cases: in vivo, human
[1] = tested on: children with regressive autism (R-ASD), STAR group; experiment: Subjective evaluation of EEG abnormality, change from first to second study
Text: Subjective Evaluation of EEG Abnormality: All first and second EEG studies were visually reassessed by a pediatric electroencephalographer blinded to subject history and group identity. All EEGs were reviewed in randomly selected order with respect to group and study order. Each EEG was scored as showing in ascending order of abnormality (if present): paroxysmal sharp theta, sharp waves, and spike or spike wave discharges. After this “blinded” estimation was completed, EEG results were sorted into first and second EEG study order, without group identity; subsequently the electroencephalographer compared each subject's two sequential EEGs and classified their scores as showing “worsening”, “no change”, or “improvement” between the first and second study.

[2] = tested on: children with regressive autism (R-ASD), STAR group; experiment: 4 Hz frequency modulated auditory evoked response (FMAER), before vs after steroid treatment; details: for Mean Diff. (mean of pre to post difference of 4 Hz FMAER spectral power): STAR group n = 20, oral 2 mg/kg/day
Text: In this example, subjects with regressive autism were utilized to determine whether application of a corticosteroid would improve language function and show an improved 4 Hz FMAER. […] A pharmacologically untreated clinical convenience sample of children with ASD served as controls.
Steroid Treated Autism with Regression (STAR): The target group of study subjects was limited to children aged 3-5 years old, diagnosed as having autism with a historically documented period of regression at onset. Regression was defined as the loss of age appropriate language, communication, cognitive ability, and behavior determined by the referring physician and confirmed by the treating neurologist. Patients with a slowly developing plateau or a very slow regression over a prolonged period of time, as opposed to an abrupt regression, were not included in the STAR group.
Steroid Treatment STAR Patients: Oral prednisolone (Prelone™ or Orapred™) was administered by the parents on a daily basis at 2 mg/kg/day. Dosage was occasionally down-adjusted on the basis of minor complications.
All subjects' electrophysiological data utilized in this study were gathered from 30 scalp channels via gold cup electrodes applied with collodion after careful measurement. A 31st channel carried the FMAER trial marker. A 32nd channel carried eye movement and blink artifact information. Data were digitized at 256 Hz after amplification by a Cardionics™ 32 channel EEG amplifier (Cardionics Inc. 910 Baystar Blvd, Webster, Tex. 77598 USA) set to 1-100 Hz pass band. The 30 EEG scalp channels used included the following: FP1, FP2, F7, F3, FZ, F4, F8, FC5, FC1, FC2, FC6, T7, C3, CZ, C4, T8, CP5, CP1, CP2, CP6, P7, P3, PZ, P4, P8, O1, OZ, O2, TP9, and TP10 [28]. Data for the FMAER were gathered over 5-20 minutes with additional time allowed for rest breaks as indicated. The patient and a parent, when behaviorally indicated, were together within view of the technologist through a one-way mirror window in a sound-shielded room, adjacent to the recording equipment. Off-line, the EEG data and accompanying trial markers were visually evaluated and epochs containing excessive eye-blink, muscle and movement artifact were marked for removal from subsequent analysis. All 30 channel data were visually inspected for EEG abnormalities and for creating the common average reference. For the current study, FMAER analysis was restricted to 14 active scalp electrodes: F7, F8, T7, T8, P7, P8, TP9, TP10, F3, F4, C3, C4, P3, and P4.
Frequency Modulated Auditory Evoked Response (FMAER): Language comprehension requires decoding of rapidly changing speech streams; detection of FM within speech has been hypothesized as essential for accurate phoneme detection and word comprehension. The FMAER was developed as a steady-state EP to assess the brain's response to rapid changes in the frequency modulation (FM) of an applied auditory stimulus in extension of and based upon the pioneering work of Green, Stefanatos and others. […] Midline frontal electrodes (FZ, FC1, FC2) usually manifest bilateral overlapping source dipole projection. […] The FMAER may be normal, or as in pathology, of low amplitude, distorted, or absent. In rare cases of pathology the FMAER source location may be outside the usual STG location and/or the source dipole may point in unexpected directions..
As previously detailed, the FMAER was formed from a carrier sine wave at 1000 Hz frequency modulated by a slower 10 Hz sine wave causing the frequency of the carrier wave to shift (“deviate”) between […] at the 10 Hz rate, producing a warbling tone. The 10 Hz sine wave was then amplitude modulated by a slower 4 Hz sine wave such that the warbling (FM modulation) was sinusoidally turned on and off (AM modulated) at the 4 Hz rate. This process caused the 10 Hz “warbling” of the 1000 Hz sine wave carrier to be sinusoidally turned fully on and off (100% modulation) at 4 Hz. […]

[3] = tested on: children with regressive autism (R-ASD), STAR group; experiment: Clinical Language Status Questionnaire (CLSQ) language assessment
Text: Language Assessment, STAR Group: STAR group subjects were followed by their child neurologists using a clinical language assessment, referred to as the “Clinical Language Status Questionnaire (CLSQ)” which was developed in-house well prior to the current study. It is as yet unpublished. The assessment was designed to assist pediatric neurologists involved in the pharmacological treatment of neurological disorders, in estimating language progress or lack thereof—from a child's parent(s)' report and the clinician's direct assessment at the time of a clinical visit. It involves evaluation of both the child's current best expressive and receptive language performance. In the current study, documentation of lack of response improvement or plateau, along with assessment of medical complication(s), constituted the primary evidence used for treatment discontinuation. […] The term “Appears normal” (Table 1) was defined as the clinician's and family's report of normal, age-appropriate speech. None of the children in this study received this score. “Appears nearly normal” was defined as context and age appropriate speech with evidence of mispronunciations, poor or odd word choice, unusual fluency or unusually sparseness, unusual grammatical errors such as errors in tense, pronoun gender match and/or pluralization, and/or requirement of adult speech simplification in order to assure comprehension relative to age expectancy. The difference between “short meaningful 1-2 word phrases” and “meaningful 3+ word phrases” is self-explanatory. Although many well developed language tests exist, as documented by the American Speech-Language-Hearing Association (www.asha.org/assessments.aspx), most tend to be detailed yet too coarsely grained to capture this population's limited language range. They are also typically too time-consuming for repeated administration by neurologists during recurring, clinical check-in visits. In contrast, the CLSQ may be completed in less than ten minutes. An additional advantage of the CLSQ for the current study was its comprehensiveness in capturing the full—while limited—range of language change observed in this patient population. Parents are shown short phrases (without the numerical scores) and asked to identify their child's current relevant expressive and receptive status. The neurologist stands by to clarify, assist, and help resolve two caregivers' divergent opinions. Neurologists using the CLSQ are sensitive to the language performance definitions in question. The study subjects' CLSQ score assignments occurred without prior knowledge of the current study.

[4] = tested on: children with regressive autism (R-ASD), STAR group; experiment: DSM-IV criteria for Autistic Disorder, scaled behavioral score
Text: Behavioral Assessment: The DSM-IV criteria for Autistic Disorder (299.0), aside from employment for diagnosis, were scaled in terms of severity for each STAR group child and the sum of the scaled scores was assigned as behavioral score. The direction of scaling was defined such that the higher the score was, the more severe the behavioral manifestations of ASD were. The symptom items and scaling are described in Table 2. […] Summed scaled item scores were assigned in order to quantify behavioral change in analogy to language change. For the current study scores were selected for the office visit nearest to the first and the second EEG/FMAER studies respectively. Scorers had no knowledge of the current study's goals or design, the future group status of subjects, or the subjects' FMAER results. The NSA group subjects lacked the DSM-IV based behavior scores.

[5] = STAR group n = 20, blinded visual EEG rating
[6] = STAR group n = 20, pre- to post-treatment, CLSQ scale 0-10

C[C@]12C=CC(=O)C=C1CC[C@@H]1[C@@H]2[C@@H](O)C[C@@]2(C)[C@H]1CC[C@]2(O)C(=O)CO [prednisolone]
EEG change Time 1 to Time 2: number of subjects Improved [1, 5]: 3
EEG change Time 1 to Time 2: number of subjects No Change [1, 5]: 10
EEG change Time 1 to Time 2: number of subjects Worse [1, 5]: 7
Steroid effect on EEG abnormalities by visual inspection ([1]; STAR vs NSA, Fisher's exact test n.s.): little evidence for a physiologically meaningful steroid effect on EEG
Electrode measurements of the FMAER 4 Hz response with significant change before vs after steroid therapy ([2]; STAR group, matched-paired t-test, 14 electrodes): nine of 14 and 9 of 14
FMAER response distortion (spectral spread) after steroid treatment ([2]; all STAR subjects, FFT of FMAER): reduction of distortion
Mean Diff. (mean of pre to post difference of 4 Hz FMAER spectral power) ([2]; electrode C3): 24.15 μV^2/Hz
Mean Diff. (mean of pre to post difference of 4 Hz FMAER spectral power) ([2]; electrode C4): 22.66 μV^2/Hz
Mean Diff. (mean of pre to post difference of 4 Hz FMAER spectral power) ([2]; electrode F3, mean 9.125 months): 47.18 μV^2/Hz
Mean Diff. (mean of pre to post difference of 4 Hz FMAER spectral power) ([2]; electrode F4): 64.31 μV^2/Hz
Mean Diff. (mean of pre to post difference of 4 Hz FMAER spectral power) ([2]; electrode F7): 3.38 μV^2/Hz
Mean Diff. (mean of pre to post difference of 4 Hz FMAER spectral power) ([2]; electrode F8): 18.47 μV^2/Hz
Mean Diff. (mean of pre to post difference of 4 Hz FMAER spectral power) ([2]; electrode P3): 10.49 μV^2/Hz
Mean Diff. (mean of pre to post difference of 4 Hz FMAER spectral power) ([2]; electrode P4): 10.52 μV^2/Hz
Mean Diff. (mean of pre to post difference of 4 Hz FMAER spectral power) ([2]; electrode P7): 65.08 μV^2/Hz
Mean Diff. (mean of pre to post difference of 4 Hz FMAER spectral power) ([2]; electrode P8): 77.83 μV^2/Hz
Mean Diff. (mean of pre to post difference of 4 Hz FMAER spectral power) ([2]; electrode T7): 15.49 μV^2/Hz
Mean Diff. (mean of pre to post difference of 4 Hz FMAER spectral power) ([2]; electrode T8): 30.60 μV^2/Hz
Mean Diff. (mean of pre to post difference of 4 Hz FMAER spectral power) ([2]; electrode TP9): 56.91 μV^2/Hz
Mean Diff. (mean of pre to post difference of 4 Hz FMAER spectral power) ([2]; electrode TP10): 83.49 μV^2/Hz
Expressive Language change Time 1 to Time 2: number of subjects Better ([3]; STAR group n = 20): 17
Expressive Language change Time 1 to Time 2: number of subjects NoDiff ([3]; STAR group n = 20): 2
Expressive Language change Time 1 to Time 2: number of subjects Worse ([3]; STAR group n = 20): 1
Receptive Language change Time 1 to Time 2: number of subjects Better ([3]; STAR group n = 20): 17
Receptive Language change Time 1 to Time 2: number of subjects NoDiff ([3]; STAR group n = 20): 3
Receptive Language change Time 1 to Time 2: number of subjects Worse ([3]; STAR group n = 20): 0
Mean Diff. of CLSQ score, Time 1 to Time 2, Expressive language [3, 6]: 4.10
Mean Diff. of CLSQ score, Time 1 to Time 2, Receptive language [3, 6]: 4.80
STAR group subjects showing improvement in language ratings ([3]; receptive and expressive, study 1 to study 2): 17/20
Average DSM-IV Score (mean of 14 scored items, 0-3 each) ([4]; After treatment): 0.9857
Average DSM-IV Score (mean of 14 scored items, 0-3 each) ([4]; Before treatment (baseline)): 2.0677
Scaled DSM-IV symptom summary scores after steroid treatment ([4]; p≦0.00001): highly significant improvement
